The values that follow come from patent US8470814B2, “Diazepinedione derivative” (Nippon Chemiphar Co., Ltd., priority 2009, dated 2013).

The test deals with T1, human P2X4 receptors (Homo sapiens, UniProt Q99571).
T1 construct: expressed in transfected cells
T1 sequence (Q99571 1-388): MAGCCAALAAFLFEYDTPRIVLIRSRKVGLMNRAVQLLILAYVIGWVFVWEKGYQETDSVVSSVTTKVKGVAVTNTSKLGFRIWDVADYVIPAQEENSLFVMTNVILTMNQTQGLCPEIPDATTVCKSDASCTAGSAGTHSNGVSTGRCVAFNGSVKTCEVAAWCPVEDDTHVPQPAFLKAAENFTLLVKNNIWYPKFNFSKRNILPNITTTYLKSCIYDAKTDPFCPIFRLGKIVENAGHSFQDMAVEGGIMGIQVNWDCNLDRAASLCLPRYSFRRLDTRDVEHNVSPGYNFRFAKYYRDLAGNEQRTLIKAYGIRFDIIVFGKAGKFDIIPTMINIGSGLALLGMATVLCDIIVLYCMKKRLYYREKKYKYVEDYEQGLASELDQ
Kind of test: calcium influx assay (Fura-2, ATP-induced Ca2+ response) for P2X4 receptor antagonism. Conditions: 1321N1 cells stably expressing human P2X4 receptors; 1 μM ATP; compound treated 15 min before ATP; fluorescence ratio F340/F380. It counts as cell-based. The method, then: (§1) 1321N1 cells stably expressing human P2X4 receptors were adopted for calcium influx assay. P2X4/1321N1 cells were plated in 96-well assay plate and cultured 24 hours in an atmosphere of 5% CO2 at 37° C. Fura-2 AM calcium indicator dissolved in an extracellular solution for calcium imaging was loaded onto cells for 45 minutes at room temperature. […] The cells were alternatively illuminated with two excitations wavelengths (340 nm and 380 nm) via xenon lamp and the emitted fluorescence was measured at 510 nm. The fluorescence changes after the treatment of 1 μM ATP were monitored and determined the fluorescence ratio (F340/F380) as the index of intracellular calcium change. Tested compounds were treated to cells 15 min before the addition of ATP and the inhibition activities of compounds were calculated by comparing the Ca^2+ response with control in the absence of tested compound.
P2X4 receptor antagonism of the compound of the present invention was measured as described below.
as §1, with “change.” for “change. Tested compounds were treated to cells 15 min before the addition of ATP and the inhibition activities of compounds were calculated by comparing the Ca^2+ response with control in the absence of tested compound.”

Where a name gives a salt, the structure may show the parent alone.

Turning to `O=C1CC(=O)N(c2cccc(-c3cn[nH]c3)c2)c2ccc3ccccc3c2N1` [Example 16, 5-[3-(1H-Pyrazol-4-yl)phenyl]-1H-naphtho[1,2-b][1,4]diazepin-2,4(3H,5H)-dione], the IC50 is 3.6 µM.
Under `O=C1CC(=O)N(c2ccc(-c3nnn[nH]3)cc2)c2ccc3ccccc3c2N1` [Example 4, 5-[4-(1H-Tetrazol-5-yl)phenyl]-1H-naphtho[1,2-b][1,4]diazepin-2,4(3H,5H)-dione sodium salt] stands 0.75 µM.
Under `O=C1CC(=O)N(c2cccc(-c3ncco3)c2)c2ccc3ccccc3c2N1` [Example 15, 5-[3-(Oxazol-2-yl)phenyl]-1H-naphtho[1,2-b][1,4]diazepin-2,4(3H,5H)-dione] stands 4.2 µM.

What is called IC50 is the concentration that inhibits the measured activity by half.
